Assay results as given in ChEMBL document CHEMBL1201862, “PubChem BioAssay data set” (2004).
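Cultured in 96-well plates, cells were exposed to test compound for 48 hours across five concentrations. Abbreviation: GI50, concentration required for 50% inhibition of growth.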 Calls of active or inactive are those of the source. Rule as the data show it: active = GI50 up to about 1.1 µM and inactive = higher.

Key:
Assay in all cases: DTP human tumour cell line panel, 48 h
COLO 205 = system: COLO 205
DU-145 = system: DU-145
HL-60 = system: HL-60
HT-29 = system: HT-29
Hs-578T = system: Hs-578T
M14 = system: M14
MDA-MB-231 = system: MDA-MB-231
Malme-3M = system: Malme-3M
NCI-H226 = system: NCI-H226
NCI-H23 = system: NCI-H23
NCI-H522 = system: NCI-H522
SF-539 = system: SF-539
SNB-19 = system: SNB-19
SR = system: SR
TK-10 = system: TK-10
U-251 = system: U-251
UACC-62 = system: UACC-62
OVCAR-5 = system: OVCAR-5
OVCAR-8 = system: OVCAR-8

| SMILES | GI50 (COLO 205) | GI50 (DU-145) | GI50 (HL-60) | GI50 (HT-29) | GI50 (Hs-578T) | GI50 (M14) | GI50 (MDA-MB-231) | GI50 (Malme-3M) | GI50 (NCI-H226) | GI50 (NCI-H23) | GI50 (NCI-H522) | GI50 (SF-539) | GI50 (SNB-19) | GI50 (SR) | GI50 (TK-10) | GI50 (U-251) | GI50 (UACC-62) | GI50 (OVCAR-5) | GI50 (OVCAR-8) |
| --- | --- | --- | --- | --- | --- | --- | --- | --- | --- | --- | --- | --- | --- | --- | --- | --- | --- | --- | --- |
| CN1CCN(C2=CC(=O)c3c(O)ccc(O)c3C2=O)CC1 | 0.166 µM (active) | 1.75 µM (inactive) | 0.298 µM (active) | 0.302 µM (active) | 2.03 µM (inactive) | 0.647 µM (active) | 1.46 µM (inactive) | 0.228 µM (active) | 1.59 µM (inactive) | 1.4 µM (inactive) | 1.71 µM (inactive) | 1.61 µM (inactive) | 1.69 µM (inactive) | 1.38 µM (inactive) | 2.74 µM (inactive) | 1.61 µM (inactive) | 1.65 µM (inactive) | – | – |
| O=C(O)CSCC(=O)c1ccccc1 | > 100 µM (inactive) | > 100 µM (inactive) | > 100 µM (inactive) | > 100 µM (inactive) | > 100 µM (inactive) | > 100 µM (inactive) | > 100 µM (inactive) | > 100 µM (inactive) | > 100 µM (inactive) | > 100 µM (inactive) | > 100 µM (inactive) | > 100 µM (inactive) | > 100 µM (inactive) | > 100 µM (inactive) | > 100 µM (inactive) | > 100 µM (inactive) | > 100 µM (inactive) | > 100 µM (inactive) | > 100 µM (inactive) |
| COC(=O)c1sc2c(c1C(=O)OC)/C(=N/C(C)(C)C)S/C2=N\C(C)(C)C | 17.4 µM (inactive) | 15.5 µM (inactive) | 13.6 µM (inactive) | 16.4 µM (inactive) | 25.7 µM (inactive) | 16.7 µM (inactive) | 19.9 µM (inactive) | 20.7 µM (inactive) | 16.3 µM (inactive) | 18.8 µM (inactive) | 18.5 µM (inactive) | 16.6 µM (inactive) | 17.8 µM (inactive) | 13.4 µM (inactive) | 17.2 µM (inactive) | 17.1 µM (inactive) | 17 µM (inactive) | 20.6 µM (inactive) | 19.5 µM (inactive) |
| O=C(O)c1cc2ccccc2c2c1C(=O)c1ccccc1-2 | > 100 µM (inactive) | > 100 µM (inactive) | > 100 µM (inactive) | > 100 µM (inactive) | > 100 µM (inactive) | 46.7 µM (inactive) | > 100 µM (inactive) | 83.8 µM (inactive) | > 100 µM (inactive) | > 100 µM (inactive) | 83.9 µM (inactive) | > 100 µM (inactive) | 57 µM (inactive) | 99.8 µM (inactive) | > 100 µM (inactive) | > 100 µM (inactive) | 45.9 µM (inactive) | > 100 µM (inactive) | > 100 µM (inactive) |
| CCCCCCCCCCCCCCCCNc1ccn(C2CC(O)C(COC(c3ccccc3)(c3ccccc3)c3ccc(OC)cc3)O2)c(=O)n1 (stereo not given) | > 100 µM (inactive) | > 100 µM (inactive) | > 100 µM (inactive) | > 100 µM (inactive) | > 100 µM (inactive) | > 100 µM (inactive) | > 100 µM (inactive) | > 100 µM (inactive) | > 100 µM (inactive) | > 100 µM (inactive) | > 100 µM (inactive) | > 100 µM (inactive) | > 100 µM (inactive) | 98.4 µM (inactive) | > 100 µM (inactive) | 64.1 µM (inactive) | > 100 µM (inactive) | > 100 µM (inactive) | > 100 µM (inactive) |
| C[C@]12CC[C@H](O)CC1=CC[C@@H]1[C@@H]2CC[C@]2(C)c3nc(Cl)ccc3C[C@@H]12 | > 100 µM (inactive) | > 100 µM (inactive) | 40.1 µM (inactive) | 10.9 µM (inactive) | 35.2 µM (inactive) | > 59.4 µM (inactive) | > 94.6 µM (inactive) | 53 µM (inactive) | > 100 µM (inactive) | 24.6 µM (inactive) | 49.8 µM (inactive) | 14.9 µM (inactive) | 36.1 µM (inactive) | 11.4 µM (inactive) | > 56.8 µM (inactive) | 31 µM (inactive) | 11.5 µM (inactive) | > 80.9 µM (inactive) | 62.5 µM (inactive) |
| CCCC(O)c1cn(C(NC(=O)c2ccccc2)P(=O)(OCC)OCC)nn1 (stereo not given) | > 100 µM (inactive) | > 100 µM (inactive) | > 100 µM (inactive) | > 100 µM (inactive) | > 100 µM (inactive) | > 100 µM (inactive) | > 100 µM (inactive) | > 100 µM (inactive) | > 100 µM (inactive) | > 100 µM (inactive) | > 100 µM (inactive) | > 100 µM (inactive) | > 100 µM (inactive) | > 100 µM (inactive) | > 100 µM (inactive) | > 100 µM (inactive) | 39.4 µM (inactive) | – | > 100 µM (inactive) |
| C#CC1NC(=O)C1N(CC)CC (stereo not given) | > 100 µM (inactive) | > 100 µM (inactive) | > 100 µM (inactive) | > 100 µM (inactive) | > 100 µM (inactive) | > 100 µM (inactive) | > 100 µM (inactive) | > 100 µM (inactive) | > 100 µM (inactive) | > 100 µM (inactive) | > 100 µM (inactive) | > 100 µM (inactive) | > 100 µM (inactive) | > 100 µM (inactive) | > 100 µM (inactive) | > 100 µM (inactive) | > 100 µM (inactive) | > 100 µM (inactive) | > 100 µM (inactive) |
| Cc1ccc(S(=O)(=O)N/N=C2/CC[C@H](C(C)(C)C)C[C@@H]2C)cc1 | 17 µM (inactive) | 15.2 µM (inactive) | 35.6 µM (inactive) | 17.1 µM (inactive) | 18.2 µM (inactive) | 13.7 µM (inactive) | 21.2 µM (inactive) | 16.1 µM (inactive) | 13.8 µM (inactive) | 17.1 µM (inactive) | > 10 µM (inactive) | 18.2 µM (inactive) | 18.5 µM (inactive) | 31.8 µM (inactive) | 16.4 µM (inactive) | 17.4 µM (inactive) | 15.7 µM (inactive) | 18.2 µM (inactive) | 16 µM (inactive) |
| C=C(CN(CC)CC)C1(c2ccccc2)CC2(CCCC2)C(=O)O1 (stereo not given) | 55 µM (inactive) | > 100 µM (inactive) | 40.6 µM (inactive) | 24.2 µM (inactive) | > 100 µM (inactive) | 45.5 µM (inactive) | > 100 µM (inactive) | > 100 µM (inactive) | 48 µM (inactive) | 33 µM (inactive) | 35 µM (inactive) | > 100 µM (inactive) | > 100 µM (inactive) | > 100 µM (inactive) | > 100 µM (inactive) | > 100 µM (inactive) | > 100 µM (inactive) | > 100 µM (inactive) | > 100 µM (inactive) |
| COc1ccc(/C=c2/[nH]c(=O)/c(=C\c3ccc(OCc4ccccc4)cn3)[nH]c2=O)cc1 | 32.2 µM (inactive) | > 100 µM (inactive) | 6.93 µM (inactive) | 50.5 µM (inactive) | 57.5 µM (inactive) | 62.8 µM (inactive) | > 100 µM (inactive) | > 100 µM (inactive) | 67.9 µM (inactive) | > 100 µM (inactive) | 71.4 µM (inactive) | 32.4 µM (inactive) | 34.4 µM (inactive) | 20.8 µM (inactive) | 71.9 µM (inactive) | 40.6 µM (inactive) | > 100 µM (inactive) | > 100 µM (inactive) | 98.2 µM (inactive) |
| O=c1cc(CBr)c2ccc(O)cc2o1 | > 100 µM (inactive) | 92 µM (inactive) | 48.3 µM (inactive) | 54.5 µM (inactive) | > 100 µM (inactive) | 59.6 µM (inactive) | > 100 µM (inactive) | 53.7 µM (inactive) | 78 µM (inactive) | 47.1 µM (inactive) | 42.1 µM (inactive) | > 100 µM (inactive) | 84.3 µM (inactive) | 63 µM (inactive) | 88.5 µM (inactive) | 53.3 µM (inactive) | 55.3 µM (inactive) | 8.39 µM (inactive) | 70.6 µM (inactive) |
| COc1cc(-c2oc3ccccc3c(=O)c2O)cc(OC)c1OC | 73.3 µM (inactive) | > 31.6 µM (inactive) | 7.08 µM (inactive) | > 74.8 µM (inactive) | 8.22 µM (inactive) | 14 µM (inactive) | 42.4 µM (inactive) | > 94.6 µM (inactive) | – | 61 µM (inactive) | 11.4 µM (inactive) | 26.3 µM (inactive) | > 58.9 µM (inactive) | 3.03 µM (inactive) | 29 µM (inactive) | 8.77 µM (inactive) | 6.5 µM (inactive) | > 100 µM (inactive) | 9.66 µM (inactive) |
| CCC(c1nc2ccccc2c(=O)n1NC(=O)C(C)(C)C)C1(O)CCCCC1 (stereo not given) | > 100 µM (inactive) | > 100 µM (inactive) | > 100 µM (inactive) | > 100 µM (inactive) | > 100 µM (inactive) | > 100 µM (inactive) | > 100 µM (inactive) | > 100 µM (inactive) | > 100 µM (inactive) | > 100 µM (inactive) | 67.8 µM (inactive) | > 100 µM (inactive) | > 100 µM (inactive) | > 100 µM (inactive) | – | > 100 µM (inactive) | > 100 µM (inactive) | > 100 µM (inactive) | > 100 µM (inactive) |
| C[C@@H]1CC[C@H]2[C@H](C)C(OC3O[C@@H]4O[C@@]5(C)CC[C@H]6[C@H](C)CC[C@@H]([C@@H]3C)[C@@]46O5)O[C@@H]3O[C@@]4(C)CC[C@@H]1[C@]32O4 (stereo not given in full) | > 100 µM (inactive) | > 100 µM (inactive) | > 100 µM (inactive) | > 100 µM (inactive) | > 100 µM (inactive) | > 100 µM (inactive) | > 100 µM (inactive) | > 100 µM (inactive) | > 100 µM (inactive) | > 100 µM (inactive) | > 100 µM (inactive) | > 100 µM (inactive) | > 100 µM (inactive) | > 100 µM (inactive) | > 100 µM (inactive) | > 100 µM (inactive) | > 100 µM (inactive) | > 100 µM (inactive) | > 100 µM (inactive) |
